These are literature values, as cited in patent US6750249B1, “Controlled release oral preparations of esculetin and its derivatives” (priority 1998, dated 2004).

This data set relates to glycosaminoglycan in the matrix. As to conditions: stimulation of interleukin-1 and the like; Japanese Patent Application Laid-open No. 312925/1994.

In the case of `Cc1cc(=O)oc2cc(O)c(O)cc12` [4-methyl esculetin], the “depression of a decrease in the amount of glycosaminoglycan in the matrix” value was “strongly depress a decrease in the amount of glycosaminoglycan”.
As for `O=c1ccc2cc(O)c(O)cc2o1` [esculetin], the “depression of a decrease in the amount of glycosaminoglycan in the matrix” value was “strongly depress a decrease in the amount of glycosaminoglycan”.
